Results on one molecule are retold here after ChEMBL document CHEMBL1156667, “Dynamic nature of the ligustilide complex” (J Nat Prod, 2008).

Common to all, as to format: physicochemical
A short description of data set [1]: Chemical stability in DMSO after 41 days. To be noted: read-out: Stability.
Data set [2] in a line: Chemical stability in MeOH after 41 days. The note with it: read-out: Stability.
Data set [3] is described as follows: Chemical stability in CDCl3 after 46 days by qHNMR experiment. To be noted: read-out: Stability.
The nature of data set [4]: Chemical stability in CDCl3 after 46 days by GC-MS analysis. To be noted: read-out: Stability.
Data set [5] in a line: Chemical stability in heaxane; EtOAc:MeOH:H2O-7 (9:1:9:1) after 41 days by qHNMR experiment. To be noted: hexane:EtOAc:MeOH:H2O (9:1:9:1) solvent mixture; read-out: Stability.

Each structure is given as a SMILES string.

For `CCC/C=C1\OC(=O)C2=C1CCC=C2` [LIGUSTILIDE], the remaining at 984 h in data set [1] was 5.2%; in data set [2] it was 4.4%; in data set [5], 0.8%. Further, the remaining at 1104 h came out at 78.1% in data set [3] and 91.6% in data set [4].
